Measurements published in patent US9993570B2, “Radiolabeled tracers for poly (ADP-ribose) polymerase-1 (PARP-1), methods and uses therefor” (Washington University, priority 2014, dated 2018).

Assay: Organ biodistribution of [18F]WC-4-138 in athymic nude mice
Type: in vivo
Description: This example illustrates biodistribution of Compound 12 ([^18F]WC-4-138) in mice. Eight week old, female, athymic nude mice (Harlan) were injected via tail vein with [^18F]WC4-138. Mice were sacrificed by cervical dislocation 5 or 30 minutes after IV tracer injection of 30 μCi, 1 or 2 hours after injection of 45 μCi, or 4 hours after injection of 60 μCi of [^18F]WC-4-138. The acetonitrile-soluble fractions of plasma or liver and the control parent compound were separated via reverse-phase high performance liquid chromatography (HPLC) and the radioactivity of each fraction was quantified. The percent parent compound of each sample was calculated as the portion of radioactivity associated with the HPLC fractions that contained the parent compound. Data are presented as mean±SD, n=3.
Four mice were sacrificed at each timepoint, with the exception of the 2 hour timepoint (n=3). Blood, heart, lung, muscle, liver, spleen, fat, adrenal glands, kidney, uterus, ovaries, bone, bone marrow, pancreas, stomach, small intestine, and large intestine were collected from each animal. All organs were blotted to remove excess blood, weighed, and counted in a Beckmann 6000 gamma counter. The percent injected dose per gram (% ID/g) of tissue was determined for each organ.

% ID/g, Adrenals (5 min after IV injection): 11.80 +/− 0.46 % ID/g
% ID/g, Blood (5 min after IV injection): 1.60 +/− 0.21 % ID/g
% ID/g, Bone (5 min after IV injection): 3.40 +/− 0.74 % ID/g
% ID/g, Brain (5 min after IV injection): 0.55 +/− 0.16 % ID/g
% ID/g, Fat (5 min after IV injection): 1.16 +/− 0.49 % ID/g
% ID/g, Heart (5 min after IV injection): 6.57 +/− 0.45 % ID/g
% ID/g, Kidney (5 min after IV injection): 35.63 +/− 3.33 % ID/g
% ID/g, Liver (5 min after IV injection): 12.50 +/− 1.08 % ID/g
% ID/g, Lower Large Intestine (5 min after IV injection): 4.17 +/− 0.42 % ID/g
% ID/g, Lung (5 min after IV injection): 11.89 +/− 0.89 % ID/g
% ID/g, Marrow (5 min after IV injection): 0.06 +/− 0.02 % ID/g
% ID/g, Muscle (5 min after IV injection): 2.05 +/− 0.48 % ID/g
% ID/g, Ovaries (5 min after IV injection): 4.71 +/− 1.21 % ID/g
% ID/g, Pancress (5 min after IV injection): 9.67 +/− 1.98 % ID/g
% ID/g, Small Intestine (5 min after IV injection): 12.64 +/− 1.45 % ID/g
% ID/g, Spleen (5 min after IV injection): 12.47 +/− 6.69 % ID/g
% ID/g, Stomach (5 min after IV injection): 3.17 +/− 0.66 % ID/g
% ID/g, Thyroid (5 min after IV injection): 4.18 +/− 1.18 % ID/g
% ID/g, Upper Large Intestine (5 min after IV injection): 7.84 +/− 1.02 % ID/g
% ID/g, Uterus (5 min after IV injection): 3.44 +/− 2.01 % ID/g
% ID/g, Adrenals (30 min after IV injection): 5.18 +/− 0.94 % ID/g
% ID/g, Blood (30 min after IV injection): 2.07 +/− 0.16 % ID/g
% ID/g, Bone (30 min after IV injection): 4.49 +/− 0.34 % ID/g
% ID/g, Brain (30 min after IV injection): 1.03 +/− 0.11 % ID/g
% ID/g, Fat (30 min after IV injection): 1.22 +/− 0.25 % ID/g
% ID/g, Heart (30 min after IV injection): 3.44 +/− 0.30 % ID/g
% ID/g, Kidney (30 min after IV injection): 21.14 +/− 2.21 % ID/g
% ID/g, Liver (30 min after IV injection): 8.24 +/− 0.62 % ID/g
% ID/g, Lower Large Intestine (30 min after IV injection): 7.43 +/− 0.59 % ID/g
% ID/g, Lung (30 min after IV injection): 5.33 +/− 0.48 % ID/g
% ID/g, Marrow (30 min after IV injection): 0.11 +/− 0.02 % ID/g
% ID/g, Muscle (30 min after IV injection): 2.39 +/− 0.15 % ID/g
% ID/g, Ovaries (30 min after IV injection): 5.31 +/− 0.82 % ID/g
% ID/g, Pancress (30 min after IV injection): 10.27 +/− 1.28 % ID/g
% ID/g, Small Intestine (30 min after IV injection): 13.00 +/− 0.75 % ID/g
% ID/g, Spleen (30 min after IV injection): 26.85 +/− 3.52 % ID/g
% ID/g, Stomach (30 min after IV injection): 3.77 +/− 0.73 % ID/g
% ID/g, Thyroid (30 min after IV injection): 4.03 +/− 0.28 % ID/g
% ID/g, Upper Large Intestine (30 min after IV injection): 14.07 +/− 1.72 % ID/g
% ID/g, Uterus (30 min after IV injection): 4.53 +/− 1.45 % ID/g
% ID/g, Adrenals (60 min after IV injection): 3.51 +/− 1.08 % ID/g
% ID/g, Blood (60 min after IV injection): 2.30 +/− 0.28 % ID/g
% ID/g, Bone (60 min after IV injection): 5.21 +/− 0.40 % ID/g
% ID/g, Brain (60 min after IV injection): 1.24 +/− 0.13 % ID/g
% ID/g, Fat (60 min after IV injection): 1.16 +/− 0.45 % ID/g
% ID/g, Heart (60 min after IV injection): 2.88 +/− 0.23 % ID/g
% ID/g, Kidney (60 min after IV injection): 14.02 +/− 1.84 % ID/g
% ID/g, Liver (60 min after IV injection): 6.50 +/− 0.52 % ID/g
% ID/g, Lower Large Intestine (60 min after IV injection): 10.53 +/− 1.45 % ID/g
% ID/g, Lung (60 min after IV injection): 3.99 +/− 0.29 % ID/g
% ID/g, Marrow (60 min after IV injection): 0.13 +/− 0.04 % ID/g
% ID/g, Muscle (60 min after IV injection): 2.21 +/− 0.31 % ID/g
% ID/g, Ovaries (60 min after IV injection): 4.75 +/− 0.36 % ID/g
% ID/g, Pancress (60 min after IV injection): 9.18 +/− 1.37 % ID/g
% ID/g, Small Intestine (60 min after IV injection): 8.85 +/− 1.49 % ID/g
% ID/g, Spleen (60 min after IV injection): 25.75 +/− 1.95 % ID/g
% ID/g, Stomach (60 min after IV injection): 3.62 +/− 0.37 % ID/g
% ID/g, Thyroid (60 min after IV injection): 3.32 +/− 0.19 % ID/g
% ID/g, Upper Large Intestine (60 min after IV injection): 15.62 +/− 2.31 % ID/g
% ID/g, Uterus (60 min after IV injection): 5.51 +/− 0.79 % ID/g
% ID/g, Adrenals (120 min after IV injection): 2.69 +/− 0.44 % ID/g
% ID/g, Blood (120 min after IV injection): 2.54 +/− 0.13 % ID/g
% ID/g, Bone (120 min after IV injection): 6.56 +/− 0.80 % ID/g
% ID/g, Brain (120 min after IV injection): 1.58 +/− 0.19 % ID/g
% ID/g, Fat (120 min after IV injection): 1.07 +/− 0.11 % ID/g
% ID/g, Heart (120 min after IV injection): 2.68 +/− 0.09 % ID/g
% ID/g, Kidney (120 min after IV injection): 8.77 +/− 0.72 % ID/g
% ID/g, Liver (120 min after IV injection): 4.58 +/− 0.29 % ID/g
% ID/g, Lower Large Intestine (120 min after IV injection): 13.35 +/− 0.87 % ID/g
% ID/g, Lung (120 min after IV injection): 3.17 +/− 0.28 % ID/g
% ID/g, Marrow (120 min after IV injection): 0.07 +/− 0.01 % ID/g
% ID/g, Muscle (120 min after IV injection): 2.07 +/− 0.11 % ID/g
% ID/g, Ovaries (120 min after IV injection): 4.25 +/− 0.52 % ID/g
% ID/g, Pancress (120 min after IV injection): 5.37 +/− 0.64 % ID/g
% ID/g, Small Intestine (120 min after IV injection): 6.62 +/− 0.75 % ID/g
% ID/g, Spleen (120 min after IV injection): 17.19 +/− 1.08 % ID/g
% ID/g, Stomach (120 min after IV injection): 2.56 +/− 0.27 % ID/g
% ID/g, Thyroid (120 min after IV injection): 3.46 +/− 0.10 % ID/g
% ID/g, Upper Large Intestine (120 min after IV injection): 10.28 +/− 0.65 % ID/g
% ID/g, Uterus (120 min after IV injection): 4.13 +/− 0.20 % ID/g
% ID/g, Adrenals (240 min after IV injection): 1.74 +/− 0.34 % ID/g
% ID/g, Blood (240 min after IV injection): 1.61 +/− 0.05 % ID/g
% ID/g, Bone (240 min after IV injection): 9.29 +/− 1.17 % ID/g
% ID/g, Brain (240 min after IV injection): 1.17 +/− 0.05 % ID/g
% ID/g, Fat (240 min after IV injection): 0.62 +/− 0.44 % ID/g
% ID/g, Heart (240 min after IV injection): 1.67 +/− 0.06 % ID/g
% ID/g, Kidney (240 min after IV injection): 3.67 +/− 0.54 % ID/g
% ID/g, Liver (240 min after IV injection): 2.43 +/− 0.25 % ID/g
% ID/g, Lower Large Intestine (240 min after IV injection): 7.17 +/− 0.50 % ID/g
% ID/g, Lung (240 min after IV injection): 2.03 +/− 0.43 % ID/g
% ID/g, Marrow (240 min after IV injection): 0.04 +/− 0.01 % ID/g
% ID/g, Muscle (240 min after IV injection): 1.35 +/− 0.09 % ID/g
% ID/g, Ovaries (240 min after IV injection): 2.00 +/− 0.41 % ID/g
% ID/g, Pancress (240 min after IV injection): 2.75 +/− 0.44 % ID/g
% ID/g, Small Intestine (240 min after IV injection): 3.04 +/− 0.25 % ID/g
% ID/g, Spleen (240 min after IV injection): 9.80 +/− 1.01 % ID/g
% ID/g, Stomach (240 min after IV injection): 1.20 +/− 0.08 % ID/g
% ID/g, Thyroid (240 min after IV injection): 3.23 +/− 0.49 % ID/g
% ID/g, Upper Large Intestine (240 min after IV injection): 4.33 +/− 0.57 % ID/g
% ID/g, Uterus (240 min after IV injection): 2.05 +/− 0.31 % ID/g
Compound: O=C1NCCn2c(-c3ccc(OCC[18F])cc3)nc3cccc1c32 [[^18F]12]
